{
  "source": "patent US5308864A",
  "about": "“6-(hydronaphtyl-1-ethyl)-4-hydroxy-3,4,5,6-tetrahydro-2H-pyran-2-ones and the corresponding hydroxy acids” (British Bio-Technology Limited, priority 1989, dated 1994)",
  "key": {"HMG-CoA reductase": {"biological_target": "T1, HMG-CoA reductase (Rattus norvegicus, UniProt P51639)", "T1 construct": "from tissue; host or cells: rat liver microsomes (cholestyramine-induced)", "T1 sequence (P51639 1-887)": "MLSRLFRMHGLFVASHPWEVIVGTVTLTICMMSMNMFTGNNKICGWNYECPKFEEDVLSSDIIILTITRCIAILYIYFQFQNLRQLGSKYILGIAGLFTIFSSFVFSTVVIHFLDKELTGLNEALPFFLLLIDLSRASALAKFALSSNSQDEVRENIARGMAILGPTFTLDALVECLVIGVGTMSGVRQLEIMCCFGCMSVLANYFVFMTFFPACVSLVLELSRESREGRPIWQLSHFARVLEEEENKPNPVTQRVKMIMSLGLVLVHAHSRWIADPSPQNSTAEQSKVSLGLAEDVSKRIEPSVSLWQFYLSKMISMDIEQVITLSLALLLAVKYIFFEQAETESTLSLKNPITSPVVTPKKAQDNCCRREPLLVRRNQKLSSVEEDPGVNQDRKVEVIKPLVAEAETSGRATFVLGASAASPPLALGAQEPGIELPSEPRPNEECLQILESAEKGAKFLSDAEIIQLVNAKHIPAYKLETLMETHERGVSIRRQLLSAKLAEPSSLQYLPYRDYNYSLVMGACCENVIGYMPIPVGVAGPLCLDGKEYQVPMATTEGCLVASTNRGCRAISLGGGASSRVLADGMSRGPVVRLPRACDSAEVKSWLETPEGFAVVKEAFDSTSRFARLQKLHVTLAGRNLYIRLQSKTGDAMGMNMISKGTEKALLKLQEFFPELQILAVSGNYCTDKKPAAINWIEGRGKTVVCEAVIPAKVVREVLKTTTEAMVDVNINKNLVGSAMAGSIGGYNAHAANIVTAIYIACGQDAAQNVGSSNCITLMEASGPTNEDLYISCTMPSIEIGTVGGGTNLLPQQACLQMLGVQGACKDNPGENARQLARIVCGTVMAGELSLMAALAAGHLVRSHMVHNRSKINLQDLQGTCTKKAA", "experiment": "In vitro determination of inhibitory potential of HMG-CoA reductase inhibitors (Test A, rat liver microsomal enzyme)", "assay_type": "biochemical", "details": "HMG-CoA reductase from rat liver microsomes; inhibitors converted to sodium salts"}, "[1]": {"tested_on": "cholesterol biosynthesis in Human hepatoma (HEP G2) cells", "experiment": "Assay for the inhibition of cholesterol biosynthesis in cultured cells (Test B, HEP G2)", "assay_type": "cell-based", "details": "2-14C-acetate incorporation, HEP G2, 3 hours at 37° C.", "description": "ASSAY FOR THE INHIBITION OF CHOLESTEROL BIOSYNTHESIS IN CULTURED CELLS\nHuman hepatoma (HEP G2) or fibroblastic (HES-9) cells were grown in Dulbecco's modified Eagle's medium (DMEM) with 10% foetal calf serum, in 6 cm tissue culture dishes until approaching confluence (approximately 4 days). The medium was changed to DMEM with 1% foetal calf serum 24 hours prior to experimentation.\nTest compounds that are salts were dissolved in aqueous, physiological buffer. Lactones and esters were dissolved in dimethylsulphoxide.\nTest compound were added to the cell monolayers concurrently with 2-^14 C-acetate (5 μCi/ml of incubation volume); control samples receiving vehicle together with radioisotope. The incubation was continued for 3 hours at 37° C.\nThe IC50 for inhibition of sterol synthesis by test compounds was measured from plots of % inhibition (compared to controls) versus log concentration, using at least 5 concentrations of inhibitor.\nThis assay, therefore, measures the ability of test substances to inhibit intracellular synthesis of cholesterol."}, "[2]": {"details": "HepG2, inhibition of sterol synthesis"}},
  "data": [
    {"smiles": "CC[C@H](C)C(=O)O[C@H]1C[C@@H](C)C[C@@H]2C=C[C@H](C)[C@H](CC[C@@H]3C[C@@H](O)CC(=O)O3)[C@@H]12", "note": "[Dihydromevinolin, reference compound]", "values": [
      {"measurement": "IC50", "setting": "HMG-CoA reductase", "result": 30, "unit": "nM"},
      {"measurement": "IC50", "setting": "[1]; [2]", "result": 40, "unit": "nM"}
    ]},
    {"smiles": "C/C=C\\[C@@H]1C[C@H](OC(=O)[C@@H](C)CC)[C@@H]2[C@@H](CC[C@@H](O)C[C@@H](O)CC(=O)O)[C@@H](C)C=C[C@H]2C1", "note": "[Compound B, Sodium (1S,2S,4aR,6S,8S,8aS,3'R,5'R,2\"S)-7'-(1,2,4a, 5,6,7,8,8a-octahydro-2-methyl-8[(2\"-methyl-1\"-oxobutyl)oxy]-6-[(Z)-prop-1-enyl]-1-naphthalenyl)-3',5'-dihydroxyheptanoate]", "values": [
      {"measurement": "IC50", "setting": "HMG-CoA reductase", "result": 15, "unit": "nM"},
      {"measurement": "IC50", "setting": "[1]; [2]", "result": 60, "unit": "nM"}
    ]},
    {"smiles": "C/C=C/[C@@H]1C[C@H](OC(=O)[C@@H](C)CC)[C@@H]2[C@@H](CC[C@@H]3C[C@@H](O)CC(=O)O3)[C@@H](C)C=C[C@H]2C1", "note": "[Compound G, (1S,2S,4aR,6S,8S,8aS,4'R,6'R,2\"S)6'-{2-(1,2,4a,5,6,7,8,8a-octahydro-2-methyl-8[(2\"-methyl-1\"-oxobutyl)oxy]-6-[(E)-prop-1-enyl]-1-naphthalenyl)ethyl}-tetrahydro-4'-hydroxy-2H-pyran-2'-one]", "values": [
      {"measurement": "IC50", "setting": "[1]; HepG2, after hydrolysis, inhibition of sterol synthesis", "result": 25, "unit": "nM"}
    ]},
    {"smiles": "C/C=C/[C@@H]1C[C@H](OC(=O)C(C)(C)CC)[C@@H]2[C@@H](CC[C@@H](O)C[C@@H](O)CC(=O)O)[C@@H](C)C=C[C@H]2C1", "note": "[Compound N, Sodium (1S,2S,4aR,6S,8S,8aS,3'R,5'R)-7'-(1,2,4a,5,6,7,8,8a-octahydro-2-methyl-8-[(2\"-dimethyl-1\"-oxobutyl)oxy]-6-[(E)-prop-1enyl]-1-naphthalenyl)-3',5'-dihydroxyheptanoate]", "values": [
      {"measurement": "IC50", "setting": "HMG-CoA reductase", "result": 3, "unit": "nM"},
      {"measurement": "IC50", "setting": "[1]; [2]", "result": 7, "unit": "nM"}
    ]}
  ]
}
